Data taken from the NIST ThermoML archive (doi:10.1016/j.fluid.2012.03.025).
± gives the expanded uncertainty stated by the source.

Columns and labels:
[1] = xn = mol fraction of the nth substance listed; settings: 298.15 K, 101 kPa, Liquid, Vibrating tube method
[2] = refractive index (Na D-line) (dimensionless); xn = mol fraction of the nth substance listed; settings: 298.15 K, 101 kPa, Liquid, Standard Abbe refractometry
[3] = Crystal

## CCCCCCC(C)O (stereo unspecified) [2-octanol] + CCCCCCCCCCCCN(CCCCCCCCCCCC)CCCCCCCCCCCC
[1]; x2 = 0
  mass density: 816.49 ± 0.11 kg/m3
[2]; x2 = 0
  refractive index: 1.4244 ± 0.0004

## CCCCCCC(C)O (stereo unspecified) [2-octanol] + CCCCCCCCCCO
[1]; x1 = 0.0505
  mass density: 826.1 ± 0.1 kg/m3
[1]; x1 = 0.1001
  mass density: 825.65 ± 0.1 kg/m3
[1]; x1 = 0.1998
  mass density: 824.82 ± 0.1 kg/m3
[1]; x1 = 0.2999
  mass density: 824.02 ± 0.1 kg/m3
[1]; x1 = 0.4006
  mass density: 823.14 ± 0.1 kg/m3
[1]; x1 = 0.5001
  mass density: 822.18 ± 0.1 kg/m3
[1]; x1 = 0.6
  mass density: 821.17 ± 0.1 kg/m3
[1]; x1 = 0.6999
  mass density: 820.13 ± 0.1 kg/m3
[1]; x1 = 0.7995
  mass density: 819.04 ± 0.11 kg/m3
[1]; x1 = 0.8998
  mass density: 817.86 ± 0.11 kg/m3
[1]; x1 = 0.95
  mass density: 817.21 ± 0.11 kg/m3
[1]; x1 = 1
  mass density: 816.49 ± 0.11 kg/m3
[2]; x1 = 0.0505
  refractive index: 1.4349 ± 0.0004
[2]; x1 = 0.1001
  refractive index: 1.4344 ± 0.0004
[2]; x1 = 0.1998
  refractive index: 1.4334 ± 0.0004
[2]; x1 = 0.2999
  refractive index: 1.4325 ± 0.0004
[2]; x1 = 0.4006
  refractive index: 1.4315 ± 0.0004
[2]; x1 = 0.5001
  refractive index: 1.4304 ± 0.0004
[2]; x1 = 0.6
  refractive index: 1.4293 ± 0.0004
[2]; x1 = 0.6999
  refractive index: 1.4281 ± 0.0004
[2]; x1 = 0.7995
  refractive index: 1.427 ± 0.0004
[2]; x1 = 0.8998
  refractive index: 1.4257 ± 0.0004
[2]; x1 = 0.95
  refractive index: 1.4251 ± 0.0004
[2]; x1 = 1
  refractive index: 1.4244 ± 0.0004

## CCCCCCC(C)O (stereo unspecified) [2-octanol] + CCCCCCCCO
[1]; x2 = 0
  mass density: 816.49 ± 0.11 kg/m3
[1]; x2 = 0.0403
  mass density: 816.8 ± 0.11 kg/m3
[1]; x2 = 0.0812
  mass density: 817.11 ± 0.11 kg/m3
[1]; x2 = 0.1657
  mass density: 817.65 ± 0.11 kg/m3
[1]; x2 = 0.2539
  mass density: 818.13 ± 0.11 kg/m3
[1]; x2 = 0.3458
  mass density: 818.63 ± 0.11 kg/m3
[1]; x2 = 0.4421
  mass density: 819.16 ± 0.11 kg/m3
[1]; x2 = 0.5431
  mass density: 819.71 ± 0.1 kg/m3
[1]; x2 = 0.649
  mass density: 820.28 ± 0.1 kg/m3
[1]; x2 = 0.7603
  mass density: 820.85 ± 0.1 kg/m3
[1]; x2 = 0.8771
  mass density: 821.36 ± 0.1 kg/m3
[1]; x2 = 0.9375
  mass density: 821.61 ± 0.1 kg/m3
[2]; x2 = 0
  refractive index: 1.4243 ± 0.0004
[2]; x2 = 0.0403
  refractive index: 1.4246 ± 0.0004
[2]; x2 = 0.0812
  refractive index: 1.4247 ± 0.0004
[2]; x2 = 0.1657
  refractive index: 1.425 ± 0.0004
[2]; x2 = 0.2539
  refractive index: 1.4253 ± 0.0004
[2]; x2 = 0.3458
  refractive index: 1.4255 ± 0.0004
[2]; x2 = 0.4421
  refractive index: 1.4259 ± 0.0004
[2]; x2 = 0.5431
  refractive index: 1.4262 ± 0.0004
[2]; x2 = 0.649
  refractive index: 1.4265 ± 0.0004
[2]; x2 = 0.7603
  refractive index: 1.4268 ± 0.0004
[2]; x2 = 0.8771
  refractive index: 1.4272 ± 0.0004
[2]; x2 = 0.9375
  refractive index: 1.4273 ± 0.0004

## CCCCCCCCCCO [decan-1-ol] + CCCCCCC(C)O
[1]; x2 = 0
  mass density: 826.59 ± 0.1 kg/m3
[2]; x2 = 0
  refractive index: 1.4354 ± 0.0004

## CCCCCCCCCCO [decan-1-ol] + CCCCCCCCCCCCN(CCCCCCCCCCCC)CCCCCCCCCCCC
[1]; x2 = 0
  mass density: 826.59 ± 0.1 kg/m3
[2]; x2 = 0
  refractive index: 1.4354 ± 0.0004

## CCCCCCCCO [octan-1-ol] + CCCCCCC(C)O
[1]; x1 = 1
  mass density: 821.76 ± 0.1 kg/m3
[2]; x1 = 1
  refractive index: 1.4275 ± 0.0004

## CCCCCCCCO [octan-1-ol] + CCCCCCCCCCCCN(CCCCCCCCCCCC)CCCCCCCCCCCC
[1]; x2 = 0
  mass density: 821.76 ± 0.1 kg/m3
[2]; x2 = 0
  refractive index: 1.4275 ± 0.0004

## CCCCCCCCCCCCN(CCCCCCCCCCCC)CCCCCCCCCCCC [tridodecylamine]
[3]
  Normal melting temperature: 16.1 ± 0.4 °C

## CCCCCCCCCCCCN(CCCCCCCCCCCC)CCCCCCCCCCCC [tridodecylamine] + CCCCCCC(C)O
[1]; x1 = 0.0526
  mass density: 816.69 ± 0.11 kg/m3
[1]; x1 = 0.1042
  mass density: 816.97 ± 0.11 kg/m3
[1]; x1 = 0.2072
  mass density: 817.55 ± 0.11 kg/m3
[1]; x1 = 0.31
  mass density: 818.03 ± 0.11 kg/m3
[1]; x1 = 0.4111
  mass density: 818.41 ± 0.11 kg/m3
[1]; x1 = 0.5114
  mass density: 818.68 ± 0.11 kg/m3
[1]; x1 = 0.6109
  mass density: 818.88 ± 0.11 kg/m3
[1]; x1 = 0.7083
  mass density: 819.04 ± 0.11 kg/m3
[1]; x1 = 0.805
  mass density: 819.15 ± 0.11 kg/m3
[1]; x1 = 0.9037
  mass density: 819.22 ± 0.11 kg/m3
[1]; x1 = 0.9524
  mass density: 819.24 ± 0.11 kg/m3
[1]; x1 = 1
  mass density: 819.23 ± 0.11 kg/m3
[2]; x1 = 0.0526
  refractive index: 1.4296 ± 0.0004
[2]; x1 = 0.1042
  refractive index: 1.4336 ± 0.0004
[2]; x1 = 0.2072
  refractive index: 1.4396 ± 0.0004
[2]; x1 = 0.31
  refractive index: 1.4436 ± 0.0004
[2]; x1 = 0.4111
  refractive index: 1.4465 ± 0.0004
[2]; x1 = 0.5114
  refractive index: 1.4486 ± 0.0004
[2]; x1 = 0.6109
  refractive index: 1.4503 ± 0.0004
[2]; x1 = 0.7083
  refractive index: 1.4516 ± 0.0004
[2]; x1 = 0.805
  refractive index: 1.4528 ± 0.0004
[2]; x1 = 0.9037
  refractive index: 1.4537 ± 0.0004
[2]; x1 = 0.9524
  refractive index: 1.4541 ± 0.0004
[2]; x1 = 1
  refractive index: 1.4546 ± 0.0004

## CCCCCCCCCCCCN(CCCCCCCCCCCC)CCCCCCCCCCCC [tridodecylamine] + CCCCCCCCCCO
[1]; x1 = 0.0522
  mass density: 825.92 ± 0.1 kg/m3
[1]; x1 = 0.104
  mass density: 825.24 ± 0.1 kg/m3
[1]; x1 = 0.2071
  mass density: 824.17 ± 0.1 kg/m3
[1]; x1 = 0.3096
  mass density: 823.37 ± 0.1 kg/m3
[1]; x1 = 0.4117
  mass density: 822.57 ± 0.1 kg/m3
[1]; x1 = 0.5112
  mass density: 821.93 ± 0.1 kg/m3
[1]; x1 = 0.6117
  mass density: 821.35 ± 0.1 kg/m3
[1]; x1 = 0.7097
  mass density: 820.82 ± 0.1 kg/m3
[1]; x1 = 0.8078
  mass density: 820.35 ± 0.1 kg/m3
[1]; x1 = 0.9041
  mass density: 819.86 ± 0.1 kg/m3
[1]; x1 = 0.9534
  mass density: 819.53 ± 0.1 kg/m3
[1]; x1 = 1
  mass density: 819.23 ± 0.11 kg/m3
[2]; x1 = 0.0522
  refractive index: 1.4385 ± 0.0004
[2]; x1 = 0.104
  refractive index: 1.4409 ± 0.0004
[2]; x1 = 0.2071
  refractive index: 1.4448 ± 0.0004
[2]; x1 = 0.3096
  refractive index: 1.447 ± 0.0004
[2]; x1 = 0.4117
  refractive index: 1.4493 ± 0.0004
[2]; x1 = 0.5112
  refractive index: 1.4506 ± 0.0004
[2]; x1 = 0.6117
  refractive index: 1.4519 ± 0.0004
[2]; x1 = 0.7097
  refractive index: 1.4528 ± 0.0004
[2]; x1 = 0.8078
  refractive index: 1.4535 ± 0.0004
[2]; x1 = 0.9041
  refractive index: 1.4541 ± 0.0004
[2]; x1 = 0.9534
  refractive index: 1.4544 ± 0.0004
[2]; x1 = 1
  refractive index: 1.4546 ± 0.0004

## CCCCCCCCCCCCN(CCCCCCCCCCCC)CCCCCCCCCCCC [tridodecylamine] + CCCCCCCCO
[1]; x1 = 0.0652
  mass density: 821.91 ± 0.1 kg/m3
[1]; x1 = 0.1282
  mass density: 821.75 ± 0.1 kg/m3
[1]; x1 = 0.2477
  mass density: 821.37 ± 0.1 kg/m3
[1]; x1 = 0.3616
  mass density: 820.95 ± 0.1 kg/m3
[1]; x1 = 0.469
  mass density: 820.67 ± 0.1 kg/m3
[1]; x1 = 0.5695
  mass density: 820.41 ± 0.1 kg/m3
[1]; x1 = 0.6684
  mass density: 820.15 ± 0.1 kg/m3
[1]; x1 = 0.7531
  mass density: 819.94 ± 0.1 kg/m3
[1]; x1 = 0.8438
  mass density: 819.65 ± 0.1 kg/m3
[1]; x1 = 0.9238
  mass density: 819.4 ± 0.1 kg/m3
[1]; x1 = 0.9643
  mass density: 819.29 ± 0.1 kg/m3
[1]; x1 = 1
  mass density: 819.23 ± 0.11 kg/m3
[2]; x1 = 0.0652
  refractive index: 1.4337 ± 0.0004
[2]; x1 = 0.1282
  refractive index: 1.438 ± 0.0004
[2]; x1 = 0.2477
  refractive index: 1.4434 ± 0.0004
[2]; x1 = 0.3616
  refractive index: 1.4468 ± 0.0004
[2]; x1 = 0.469
  refractive index: 1.4491 ± 0.0004
[2]; x1 = 0.5695
  refractive index: 1.4506 ± 0.0004
[2]; x1 = 0.6684
  refractive index: 1.4519 ± 0.0004
[2]; x1 = 0.7531
  refractive index: 1.4528 ± 0.0004
[2]; x1 = 0.8438
  refractive index: 1.4535 ± 0.0004
[2]; x1 = 0.9238
  refractive index: 1.4541 ± 0.0004
[2]; x1 = 0.9643
  refractive index: 1.4544 ± 0.0004
[2]; x1 = 1
  refractive index: 1.4546 ± 0.0004
